{"source": "ChEMBL document CHEMBL1141954", "about": "“Indole-2-carboxamidines as novel NR2B selective NMDA receptor antagonists” (Bioorg Med Chem Lett, 2005)", "key": {"[1]": {"target": "Glutamate NMDA receptor", "test": "Inhibition of NMDA-evoked intracellular calcium increase in rat cortical cells", "format": "functional, cell-based"}, "[2]": {"target": "Glutamate NMDA receptor; GRIN1/GRIN2A (Homo sapiens) (UniProt Q05586+Q12879)", "test": "Inhibitory activity against NR1A expressed in combination with NR2A at 15 uM"}, "[3]": {"target": "Glutamate NMDA receptor", "test": "Inhibition of NMDA-evoked intracellular calcium increase in rat cortical cell at 1 uM", "format": "functional, cell-based"}, "[4]": {"species": "Mus musculus", "test": "Oral efficacy in mice formalin test", "format": "functional"}}, "data": [{"smiles": "COc1ccc2[nH]c(C(=N)NCc3ccccc3OC)cc2c1", "values": [{"measurement": "IC50", "setting": "[1]", "result": 19, "unit": "nM"}]}, {"smiles": "COc1cccc(OC)c1C/N=C(\\N)c1cc2cc(Cl)ccc2[nH]1", "values": [{"measurement": "IC50", "setting": "[1]", "result": 69, "unit": "nM"}]}, {"smiles": "N=C(NCc1c(F)cccc1F)c1cc2ccccc2[nH]1", "values": [{"measurement": "IC50", "setting": "[1]", "result": 143, "unit": "nM"}]}, {"smiles": "COc1cccc(OC)c1C/N=C(\\N)c1cc2cc(F)ccc2[nH]1", "values": [{"measurement": "IC50", "setting": "[1]", "result": 17, "unit": "nM"}]}, {"smiles": "COc1ccccc1C/N=C(\\N)c1cc2cc(Cl)ccc2[nH]1", "values": [{"measurement": "IC50", "setting": "[1]", "result": 64, "unit": "nM"}]}, {"smiles": "COc1cccc(OC)c1C/N=C(\\N)c1cc2ccccc2[nH]1", "values": [{"measurement": "inhibition", "setting": "[2]", "result": 32.1, "unit": "%"}, {"measurement": "IC50", "setting": "[1]", "result": 5.4, "unit": "nM"}]}, {"smiles": "Cl.N=C(NCc1ccccc1)c1cc2ccccc2[nH]1", "values": [{"measurement": "inhibition", "setting": "[3]", "result": 32.8, "unit": "%"}]}, {"smiles": "Cc1ccccc1C/N=C(\\N)c1cc2ccccc2[nH]1", "values": [{"measurement": "IC50", "setting": "[1]", "result": 170, "unit": "nM"}]}, {"smiles": "COc1ccccc1CNC(=N)/C=C/c1ccccc1", "values": [{"measurement": "IC50", "setting": "[1]", "result": 6.6, "unit": "nM"}]}, {"smiles": "COc1ccccc1C/N=C(\\N)c1cc2cc(F)ccc2[nH]1", "values": [{"measurement": "IC50", "setting": "[1]", "result": 33, "unit": "nM"}]}, {"smiles": "COc1ccc2[nH]c(C(=N)NCc3c(OC)cccc3OC)cc2c1", "values": [{"measurement": "IC50", "setting": "[1]", "result": 26, "unit": "nM"}]}, {"smiles": "COc1ccccc1C/N=C(\\N)c1cc2ccccc2[nH]1.Cl", "values": [{"measurement": "ED50", "setting": "[4]", "result": 15, "unit": "mg/kg"}, {"measurement": "IC50", "setting": "[1]", "result": 35, "unit": "nM"}]}, {"smiles": "COc1ccc(C/N=C(\\N)c2cc3ccccc3[nH]2)cc1.Cl", "values": [{"measurement": "inhibition", "setting": "[3]", "result": 10.5, "unit": "%"}]}, {"smiles": "N=C(NCc1cc(Cl)cc(Cl)c1)c1cc2ccccc2[nH]1", "values": [{"measurement": "IC50", "setting": "[1]", "result": 159, "unit": "nM"}]}, {"smiles": "COc1cccc(C/N=C(\\N)c2cc3ccccc3[nH]2)c1.Cl", "values": [{"measurement": "inhibition", "setting": "[3]", "result": 57, "unit": "%"}]}, {"smiles": "N=C(NCc1ccccc1F)c1cc2ccccc2[nH]1", "values": [{"measurement": "IC50", "setting": "[1]", "result": 232, "unit": "nM"}]}]}
